Measurements from US20200352912A1, “ANTIMICROBIAL COMPOSITIONS AND METHODS OF USING THE SAME” (The Board Of Supervisors Of Louisiana State University And …, priority 2018, published 2020).

Columns and labels:
S. aureus NRS383 = test: planktonic antimicrobial assay (OD600 growth); format: cell-based, Staphylococcus aureus; conditions: 100 μg/ml (inhibitor-specific concentrations b175), OD600 up to 24 h
Method: Effect of COX enzyme inhibitors or PGE2 EP receptor antagonists on microbial growth. The antimicrobial activity of selective COX enzyme inhibitor or PGE2 EP receptor antagonist on the growth of C. albicans DAY185 (A), S. aureus NRS383 (B) and MRSA and MSSA clinical isolates (C). Growth of C. albicans and S. aureus was monitored for up to 24 h in medium alone or supplemented with DMSO or EP receptor antagonists or COX enzyme inhibitor at physiologically relevant concentrations. Data shown are representative of three independent experiments.
C. albicans and S. aureus were grown as described above. […] Cells were grown with shaking as described above, and 1 ml aliquots were removed each hour in duplicate and optical density at 600 nm measured (OD600) by spectrophotometer (Biomate 3S, Thermo Scientific).

E. coli = test: spectrum of activity, bacterial growth; format: cell-based, Escherichia coli; conditions: 50 μg/ml, 6 h
Method: Bacterial growth was monitored for 6 h in medium alone or supplemented with 50 μg/ml of L-161, 982. Data shown is representative of three independent experiments.
Strains and growth conditions. The methicillin-resistant S. aureus strain NRS383 used in all experiments was obtained from the Network on Antimicrobial Resistance in S. aureus (NARSA) data bank. NRS383 is positive for the toxic shock syndrome toxin (tst) and 6-toxin genes. SJ-MRSA 6 and SJ-SA5 are methicillin-resistant (MRSA) and methicillin-sensitive (MSSA) clinical S. aureus strains respectively isolated from a patient's catheter. Other bacterial species used in this study include Escherichia coli (ATCC 25922, clinical isolate), S. epidermidis (ATCC 12228), Klebsiella pneumonia (ATCC 43816), Enterococcus faecalis (ATCC 51299, clinical isolate), and Streptococcus mutans (UA159, 12). S. mutans strain was maintained in brain heart infusion (BHI) broth while the other bacterial species were maintained in Luria-Bertani broth. Frozen stocks were obtained at −80° C. and streaked onto agar plates at 37° C. prior to use. A single colony was transferred to 10 ml of culture broth and shaken at 37° C. overnight. On the following day, the overnight culture was diluted 1:100 in fresh growth medium and shaken at 37° C. for 3 h to obtain cells in mid-log growth phase. S. mutans cultures were grown without agitation in the presence of 5% CO2. […]

S. aureus = test: generation of hydroxyl radicals (thiourea scavenger); format: cell-based, Staphylococcus aureus; conditions: 50 μg/ml, 150 mM thiourea
Method: (A) Effects of reactive oxygen species inhibitors. Growth of S. aureus was monitored for up to 6 h in medium alone or medium supplemented with 15 mM of Na-L-ascorbate, and/or 15 mM N-acetyl-L-cysteine, and/or 50 μg/ml L-161, 982. Data shown are representative of two independent experiments. (B) Effects of hydroxyl radical scavengers. Growth was monitored for 4 h in medium alone or medium supplemented with 50 μg/ml L-161, 982 or 1 mM H2O2 alone, plus 150 mM thiourea, or plus 500 μM 2,2′-dipyridyl.
Generation of hydroxyl radicals. Antibiotic induced hydroxyl radical production was measured as previously described (12). Overnight cultures of S. aureus were diluted 1:100 in TSB and grown for 3 h at 37° C. with shaking to mid-log phase. Cultures were diluted in TSB to OD600=0.05 and L-161, 982 was added at a final concentration of 50 µg/ml+/−H2O2 (1 mM; Sigma) or thiourea (150 mM; Sigma). Cultures were incubated at 37° C. with shaking and aliquots were removed at t(0) and at 1 h intervals duplicate, diluted 1:100 and optical density measured at 600 nm (OD600) or serially diluted and plated onto SDA and grown at 37° C. for 24 h for CFU enumeration.

mouse primary myoblasts = conditions: cited from earlier work

CCCCc1nn(-c2ccccc2C(F)(F)F)c(=O)n1Cc1ccc(-c2ccccc2S(=O)(=O)NC(=O)c2sccc2C)cc1 [L-161, 982, N-[[4′-[[3-Butyl-1,5-dihydro-5-oxo-1-[2-(trifluoromethyl)phenyl]-4H-1,2,4-triazol-4-yl]methyl][1,1′-biphenyl]-2-yl]sulfonyl]-3-methyl-2-thiophenecarboxamide]
growth of S. aureus (S. aureus NRS383): significant inhibitory effect
growth inhibitory activity (E. coli): No inhibitory effects
effect of thiourea on growth inhibition (S. aureus): did not alleviate
proliferation of mouse primary myoblasts (mouse primary myoblasts): inhibit proliferation
